For one data set, the system named is mice. Nature of the data set: Mouse forced swim test (mFST). To be noted: 1 mg/Kg i.v., 15 min before 6 min swim session. The class given is in vivo. Here is the method: Forced Swim Test (FST) is an animal model used to assess antidepressant compounds in preclinical studies. The FST was performed similar to the method of Porsolt et al. with modifications (Porsolt R D, Bertin A, Jalfre M. Behavioral despair in mice: a primary screening test for antidepressants. Arch Int Pharmacodyn Thér 1977; 229:327-36). In this paradigm, mice are forced to swim in an inescapable cylinder filled with water. Under these conditions, mice will initially try to escape and eventually develop immobility behavior; this behavior is interpreted as a passive stress-coping strategy or depression-like behavior. Swim tanks were positioned inside a box made of plastic. Each tank was separated from each other by opaque plastic sheets to the height of cylinders. Three mice were subjected to test at a time. Swim sessions were conducted for 6 min by placing mice in individual glass cylinders (46 cm height×20 cm diameter) containing water (20-cm deep, maintained at 24-25° C.). […] The duration of immobility was evaluated during the total 6 min of the test and expressed as duration (sec) of immobility. […] For NCE testing: Test compound was administered in mice 15 min before swim session by i.v. route and immobility time was recorded for next 6 min. […] The NR2B receptor occupancy was determined as reported above and was determined to be 73%. […] The NR2B receptor occupancy was determined to be 79%.

Data set [1] addresses T1, NR2B-subtype NMDA receptors (Rattus norvegicus, UniProt P35439+Q00960).
T1 construct: For membrane preparation, rat forebrains were thawed on ice; from tissue; host or cells: rat forebrain membrane homogenate (Sprague Dawley, Harlan)
Nature of the data set: Radioligand binding assay (3H Ro 25-6981 competition, rat forebrain membranes). Conditions: 3H Ro 25-6981 4 nM. Here is the method:
For membrane preparation, rat forebrains were thawed on ice for 20 minutes in homogenization buffer composed of 50 mM KH2PO4 (pH adjusted to 7.4 with KOH), 1 mM EDTA, 0.005% Triton X 100 and protease inhibitor cocktail (Sigma Aldrich). Thawed brains were homogenized using a Dounce homogenizer and centrifuged at 48000×g for 20 min. The pellet was resuspended in cold buffer and homogenized again using a Dounce homogenizer. Subsequently, the homogenate was aliquoted, snap-frozen and stored at −80° C. for not more than 3-4 months.
To perform the competition binding assay, thawed membrane homogenate was added to each well of a 96-well plate (20 μg/well). The experimental compounds were serially diluted in 100% DMSO and added to each row of the assay plate to achieve desired compound concentrations, keeping the DMSO concentration in the assay plate at 1.33% of the final reaction volume. Next, ^3H Ro 25-6981 (4 nM) was added to the assay plate. After incubation for 1 hr at room temperature, the membrane bound radioligand was harvested on to GF/B filter plates (treated with 0.5% PEI for 1 hr at room temperature). The filter plates were dried at 50° C. for 20 mins, incubated with microscint 20 for 10 minutes and finally, the counts were read on TopCount (Perkin Elmer).

The nature of data set [2]: Drug levels in blood plasma and brain tissue by mass spectroscopy (ex vivo occupancy study). Conditions: male, CD-1, mouse, iv, mice, 3 mg/Kg i.v., 15 minutes post-dosing. Here is the method: (§1) 7-9 weeks old male CD-1 mice were dosed intravenously in a vehicle consisting of 10% dimethylacetamide, 40% PEG-400, 30% hydroxypropyl betacyclodextrin, and 30% water with experimental compounds and the forebrains were harvested 15 minutes post-dosing by decapitation. The brain samples were immediately snap-frozen and stored at −80° C. On the following day, the dosed brain samples were thawed on ice for 15-20 minutes followed by homogenization using Polytron for 10 seconds in cold homogenization buffer composed of 50 mM KH2PO4 (pH adjusted to 7.4 with KOH), 1 mM EDTA, 0.005% Triton X 100 and protease inhibitor cocktail (Sigma Aldrich). The crude homogenates were further homogenized using a Dounce homogenizer and the homogenized membrane aliquots from all animals were flash-frozen and stored at −80° C. until further use. The whole homogenization process was performed on ice.
(§2) [formula] […] Drug levels were determined by mass spectroscopy in the usual manner. Drug levels in the blood plasma were 1106 nM in at this dose, and drug levels in the homogonized brain tissue were 1984 nM. […] Drug levels in the blood plasma were 1800 nM in at this dose, and drug levels in the homogonized brain tissue were 2200 nM. […] Drug levels in the blood plasma were 570 nM at this dose, and drug levels in the homogonized brain tissue were 900 nM.

The target of a further data set is T2, NR2B-subtype receptors (Mus musculus, UniProt P35438+Q01097).
T2 construct: from tissue; host or cells: forebrain membrane homogenate of dosed CD-1 mice
Nature of the data set: Ex vivo occupancy assay. The class given is in vivo. To be noted: iv; for receptor occupancy at 3 mg/kg: CD-1 mice, 3 mg/Kg i.v., forebrain harvested 15 minutes post-dosing; for receptor occupancy at 1 mg/kg: mice, 1 mg/Kg i.v., after forced swim test. Here is the method:
as §1
For determining occupancy, the membrane homogenates were first thawed on ice and then needle-homogenized using a 25 gauge needle. The homogenized membrane (6.4 mg/ml) was added to a 96-well plate followed by addition of ^3H Ro 25-6981 (6 nM). The reaction mixture was incubated for 5 minutes on a shaker at 4° C. and then harvested onto GF/B filter plates (treated with 0.5% PEI for 1 hr at room temperature). The filter plates were dried at 50° C. for 20 mins, incubated with microscint 20 for 10 minutes and read on TopCount (Perkin Elmer). Each dose or compound group consisted of 4-5 animals. The control group of animals was dosed with vehicle alone. Membrane from each animal was added in triplicates to the assay plate. Non-specific binding was determined using 10 μM Ro 25-6981 added to the wells containing membrane homogenates from vehicle-dosed animals. Specific counts/minute was converted to % occupancy at each dose of a compound for each animal using the following equation:
as §2

The nature of data set [3]: Drug levels in plasma and brain after mouse forced swim test. The class given is in vivo. Conditions: iv, mice, 1 mg/Kg i.v., at the end of FST. Here is the method:
Forced Swim Test (FST) is an animal model used to assess antidepressant compounds in preclinical studies. The FST was performed similar to the method of Porsolt et al. with modifications (Porsolt R D, Bertin A, Jalfre M. Behavioral despair in mice: a primary screening test for antidepressants. Arch Int Pharmacodyn Thér 1977; 229:327-36). In this paradigm, mice are forced to swim in an inescapable cylinder filled with water. Under these conditions, mice will initially try to escape and eventually develop immobility behavior; this behavior is interpreted as a passive stress-coping strategy or depression-like behavior. Swim tanks were positioned inside a box made of plastic. Each tank was separated from each other by opaque plastic sheets to the height of cylinders. Three mice were subjected to test at a time. Swim sessions were conducted for 6 min by placing mice in individual glass cylinders (46 cm height×20 cm diameter) containing water (20-cm deep, maintained at 24-25° C.). […] The duration of immobility was evaluated during the total 6 min of the test and expressed as duration (sec) of immobility. […] All testing sessions were recorded with a video camera (Sony Handicam, Model: DCR-HC38E; PAL) and scoring was done using the Forced Swim Scan, Version 2.0 software (Clever Systems Inc., Reston, Va., USA; see Hayashi E, Shimamura M, Kuratani K, Kinoshita M, Hara H. Automated experimental system capturing three behavioral components during murine forced swim test. Life Sci. 2011 Feb. 28; 88(9-10):411-7 and Yuan P, Tragon T, Xia M, Leclair C A, Skoumbourdis A P, Zheng W, Thomas C J, Huang R, Austin C P, Chen G, Guitart X. Phosphodiesterase 4 inhibitors enhance sexual pleasure-seeking activity in rodents. […] For NCE testing: Test compound was administered in mice 15 min before swim session by i.v. route and immobility time was recorded for next 6 min. […] The NR2B receptor occupancy was determined as reported above and was determined to be 73%. […] The NR2B receptor occupancy was determined to be 79%.

A further data set deals with T3, hERG channels (Homo sapiens, UniProt Q12809).
T3 construct: expressed in transfected cells
Nature of the data set: hERG electrophysiology assay (patch clamp, HEK 293 cells). The data set is classed as cell-based. To be noted: HEK 293 cells stably expressing hERG, patch clamp tail current. Here is the method:
The experimental compounds were assessed for hERG activity on HEK 293 cells stably expressing hERG channels using patch clamp technique. Coverslips plated with hERG expressing cells were placed in the experimental chamber and were perfused with a solution composed of (in mM): 140 NaCl, 4 KCl, 1.8 CaCl2, 1 MgCl2, 10 Glucose, 10 HEPES (pH 7.4, NaOH) at room temperature. Borosilicate patch pipettes had tip resistances of 2-4 Mohms when filled with an internal solution containing 130 KCl, 1 MgCl2, 1 CaCl2, 10 EGTA, 10 HEPES, 5 ATP-K2 (pH 7.2, KOH). The cells were clamped at −80 mV in whole cell configuration using an Axopatch 200B (Axon instruments, Union City, Calif.) patch clamp amplifier controlled by pClamp (Axon instruments) software. Upon formation of a gigaseal, the following voltage protocol was repeatedly (0.05 Hz) applied to record tail currents: depolarization step from −80 mV to +20 mV for 2 seconds followed by a hyperpolarization step to −65 mV (3 seconds) to elicit tail currents and then, back to the holding potential. […] First, tail currents were recorded in presence of extracellular solution alone (control) and subsequently, in extracellular solution containing increasing compound concentrations. […] The percentage inhibition at each concentration was calculated as reduction in peak tail current with respect to the peak tail current recorded in the presence of control solution. […]
Background: The hERG channel carries a current that helps repolarise heart muscle cells.

Where [4] appears, read: brain (homogenized forebrain tissue), read-out: drug levels in the homogonized brain tissue.
Where [5] appears, read: plasma, read-out: Drug levels in the blood plasma.
[6] abbreviates: plasma, read-out: Drug levels in the plasma.

The structures appear in SMILES notation. Read-outs that look alike come from different tables or passages of the source.

The values below come from patent US9187506B2 (Bristol-Meyers Squibb Company, priority 2014, dated 2015).

T2 sequence (Q01097 27-1482, other chains not shown): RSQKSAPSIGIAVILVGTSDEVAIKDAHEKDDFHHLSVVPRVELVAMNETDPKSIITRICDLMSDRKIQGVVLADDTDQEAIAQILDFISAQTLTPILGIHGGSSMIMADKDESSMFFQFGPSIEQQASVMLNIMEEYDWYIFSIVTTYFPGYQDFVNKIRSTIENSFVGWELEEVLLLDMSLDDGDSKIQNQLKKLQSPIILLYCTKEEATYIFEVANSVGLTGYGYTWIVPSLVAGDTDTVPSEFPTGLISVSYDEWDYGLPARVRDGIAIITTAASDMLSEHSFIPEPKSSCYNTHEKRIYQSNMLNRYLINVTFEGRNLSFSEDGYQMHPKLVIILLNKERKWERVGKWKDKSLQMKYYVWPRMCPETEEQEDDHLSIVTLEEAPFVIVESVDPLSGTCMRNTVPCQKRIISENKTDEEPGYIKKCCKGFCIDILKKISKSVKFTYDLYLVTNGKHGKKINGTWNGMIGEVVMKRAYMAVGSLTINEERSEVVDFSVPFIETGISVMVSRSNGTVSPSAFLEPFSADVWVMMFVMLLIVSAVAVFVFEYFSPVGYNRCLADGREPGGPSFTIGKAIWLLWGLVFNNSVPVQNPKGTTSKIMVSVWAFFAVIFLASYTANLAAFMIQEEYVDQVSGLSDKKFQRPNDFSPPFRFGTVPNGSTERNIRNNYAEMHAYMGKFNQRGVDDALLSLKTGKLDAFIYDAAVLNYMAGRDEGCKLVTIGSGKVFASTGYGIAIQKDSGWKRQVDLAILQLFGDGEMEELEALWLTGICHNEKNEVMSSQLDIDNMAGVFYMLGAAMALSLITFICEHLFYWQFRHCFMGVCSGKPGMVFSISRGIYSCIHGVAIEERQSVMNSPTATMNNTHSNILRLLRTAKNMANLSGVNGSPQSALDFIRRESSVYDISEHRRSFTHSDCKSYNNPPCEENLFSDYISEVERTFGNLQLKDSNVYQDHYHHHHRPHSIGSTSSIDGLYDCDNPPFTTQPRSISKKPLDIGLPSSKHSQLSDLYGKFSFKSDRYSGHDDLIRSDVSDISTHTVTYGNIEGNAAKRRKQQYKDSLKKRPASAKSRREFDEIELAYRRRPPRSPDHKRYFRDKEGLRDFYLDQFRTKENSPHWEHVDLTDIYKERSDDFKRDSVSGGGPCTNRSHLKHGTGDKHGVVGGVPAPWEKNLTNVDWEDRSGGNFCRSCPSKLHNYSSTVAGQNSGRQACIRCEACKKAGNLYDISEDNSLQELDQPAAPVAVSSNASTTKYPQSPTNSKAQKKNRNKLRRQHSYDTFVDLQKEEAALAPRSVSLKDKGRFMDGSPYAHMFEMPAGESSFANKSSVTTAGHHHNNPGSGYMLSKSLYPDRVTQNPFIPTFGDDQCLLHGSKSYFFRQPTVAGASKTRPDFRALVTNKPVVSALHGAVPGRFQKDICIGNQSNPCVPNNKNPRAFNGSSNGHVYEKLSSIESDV
T3 sequence (Q12809 whole entry): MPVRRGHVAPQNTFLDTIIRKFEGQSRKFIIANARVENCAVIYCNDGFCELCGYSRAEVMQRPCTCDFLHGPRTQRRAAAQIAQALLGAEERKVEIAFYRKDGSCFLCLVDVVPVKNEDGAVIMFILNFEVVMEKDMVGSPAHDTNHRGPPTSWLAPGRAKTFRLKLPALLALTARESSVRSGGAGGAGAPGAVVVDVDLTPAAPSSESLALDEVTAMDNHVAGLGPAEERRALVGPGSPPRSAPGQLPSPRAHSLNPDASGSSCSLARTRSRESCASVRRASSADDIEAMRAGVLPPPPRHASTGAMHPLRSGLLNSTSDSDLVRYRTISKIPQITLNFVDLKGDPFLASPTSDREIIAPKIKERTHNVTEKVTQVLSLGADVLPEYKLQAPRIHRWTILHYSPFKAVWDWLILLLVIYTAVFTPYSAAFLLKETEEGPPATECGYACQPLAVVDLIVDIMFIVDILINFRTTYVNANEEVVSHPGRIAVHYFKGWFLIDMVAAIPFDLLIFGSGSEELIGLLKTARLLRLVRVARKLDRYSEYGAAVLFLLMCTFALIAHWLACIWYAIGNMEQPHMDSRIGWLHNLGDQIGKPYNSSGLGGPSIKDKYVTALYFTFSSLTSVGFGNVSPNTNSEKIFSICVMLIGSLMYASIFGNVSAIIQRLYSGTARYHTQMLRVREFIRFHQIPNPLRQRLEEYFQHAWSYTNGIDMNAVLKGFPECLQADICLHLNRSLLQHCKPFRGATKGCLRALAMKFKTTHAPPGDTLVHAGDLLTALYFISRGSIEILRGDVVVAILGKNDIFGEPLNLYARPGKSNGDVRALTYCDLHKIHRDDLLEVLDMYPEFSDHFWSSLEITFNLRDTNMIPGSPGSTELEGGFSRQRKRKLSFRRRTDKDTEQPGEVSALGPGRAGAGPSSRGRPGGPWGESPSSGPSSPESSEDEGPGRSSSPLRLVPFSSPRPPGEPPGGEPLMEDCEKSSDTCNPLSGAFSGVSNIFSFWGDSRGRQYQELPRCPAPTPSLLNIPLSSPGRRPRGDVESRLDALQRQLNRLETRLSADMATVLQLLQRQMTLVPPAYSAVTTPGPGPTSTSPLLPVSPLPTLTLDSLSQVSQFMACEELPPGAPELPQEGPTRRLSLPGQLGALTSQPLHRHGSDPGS
T1 sequence (Q00960 27-1482, other chains not shown): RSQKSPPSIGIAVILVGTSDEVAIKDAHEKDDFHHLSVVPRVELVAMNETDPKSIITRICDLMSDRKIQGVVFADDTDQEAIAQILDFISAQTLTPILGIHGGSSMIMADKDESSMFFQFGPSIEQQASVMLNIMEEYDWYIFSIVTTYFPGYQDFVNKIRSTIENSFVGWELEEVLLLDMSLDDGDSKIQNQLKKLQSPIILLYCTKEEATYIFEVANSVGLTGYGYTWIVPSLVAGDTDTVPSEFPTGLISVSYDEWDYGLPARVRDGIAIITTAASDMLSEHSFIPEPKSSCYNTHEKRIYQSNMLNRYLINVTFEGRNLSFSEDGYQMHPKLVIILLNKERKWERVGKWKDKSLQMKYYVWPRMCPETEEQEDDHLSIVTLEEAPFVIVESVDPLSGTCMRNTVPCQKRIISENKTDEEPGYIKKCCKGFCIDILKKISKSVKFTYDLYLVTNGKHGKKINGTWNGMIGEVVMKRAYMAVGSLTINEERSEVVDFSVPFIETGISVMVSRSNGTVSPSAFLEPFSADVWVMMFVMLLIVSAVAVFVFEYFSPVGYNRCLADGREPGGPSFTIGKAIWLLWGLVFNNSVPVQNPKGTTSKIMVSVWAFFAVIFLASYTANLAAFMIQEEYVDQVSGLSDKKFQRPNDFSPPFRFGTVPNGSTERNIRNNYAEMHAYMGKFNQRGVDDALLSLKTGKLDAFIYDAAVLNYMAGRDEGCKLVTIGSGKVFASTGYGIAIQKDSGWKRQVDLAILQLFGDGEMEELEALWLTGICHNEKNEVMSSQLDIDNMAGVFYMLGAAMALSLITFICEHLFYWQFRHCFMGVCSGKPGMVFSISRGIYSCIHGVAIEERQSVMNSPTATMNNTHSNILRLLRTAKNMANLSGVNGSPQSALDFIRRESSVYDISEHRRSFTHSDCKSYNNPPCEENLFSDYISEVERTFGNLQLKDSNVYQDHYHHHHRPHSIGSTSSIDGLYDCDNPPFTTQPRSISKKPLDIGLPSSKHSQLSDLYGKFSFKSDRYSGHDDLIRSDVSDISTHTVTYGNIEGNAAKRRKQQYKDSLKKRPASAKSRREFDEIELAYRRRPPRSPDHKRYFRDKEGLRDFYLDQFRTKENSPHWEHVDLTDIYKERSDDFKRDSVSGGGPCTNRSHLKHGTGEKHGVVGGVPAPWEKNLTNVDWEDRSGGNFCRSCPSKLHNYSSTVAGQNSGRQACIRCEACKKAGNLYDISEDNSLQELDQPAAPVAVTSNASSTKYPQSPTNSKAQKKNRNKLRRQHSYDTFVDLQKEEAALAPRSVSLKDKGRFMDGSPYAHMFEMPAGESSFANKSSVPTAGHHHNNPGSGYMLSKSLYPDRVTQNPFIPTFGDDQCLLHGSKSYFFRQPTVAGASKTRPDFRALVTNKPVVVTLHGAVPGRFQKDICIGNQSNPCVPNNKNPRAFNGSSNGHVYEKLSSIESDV

On to `O=C1[C@H](N2CC[C@@H](c3ccc(O)cc3)[C@H](F)C2)CCN1Cc1ccc(C(F)F)cc1` (single isomer, unassigned) [example 6], for which, in the data set on mice, the immobility time result is “statistically significant decrease in immobility time”. In addition, the Ki (as a rule, a measure of affinity in units of concentration, obtained from inhibition or displacement) in data set [1] turned out to be 0.004 µM. In addition, the concentration at 15 min in data set [2] (setting [4]) worked out at 2200 nM; in data set [2] (setting [5]), 1800 nM. This compound also yielded a receptor occupancy at 3 mg/kg at NR2B-subtype receptors of 97%. At NR2B-subtype receptors, this compound came in with a receptor occupancy at 1 mg/kg of 79%. The concentration at 21 min in data set [3] (setting [6]) came to 360 nM. In addition, on hERG channels, the IC50 (in general, the concentration at which inhibition is half-maximal) amounted to 13.5 µM.

Regarding `O=C1[C@H](N2CCC(c3ccc(O)cc3)CC2)CCN1Cc1ccc(F)cc1` (single isomer, unassigned) [example 8], affinity in data set [1] was put at a Ki of 0.0014 µM. Besides, the concentration at 15 min in data set [2] (setting [4]) is 900 nM; in data set [2] (setting [5]), 570 nM. This compound returned a receptor occupancy at 3 mg/kg on NR2B-subtype receptors of 96%.

As for `Cc1ccc(CN2CC[C@@H](N3CC[C@@H](c4ccc(O)cc4)[C@H](F)C3)C2=O)cc1` [example 1, (R)-3-((3S,4S)-3-fluoro-4-(4-hydroxyphenyl)piperidin-1-yl)-1-(4-methylbenzyl)pyrrolidin-2-one], the immobility time entry with mice was “statistically significant decrease in immobility time”. In addition, the concentration at 15 min turned out to be 1980 nM in data set [2] (setting [4]) and 1110 nM in data set [2] (setting [5]). At NR2B-subtype receptors, this compound came in with a receptor occupancy at 3 mg/kg of 95%. This compound gave a receptor occupancy at 1 mg/kg at NR2B-subtype receptors of 73%. Besides, the concentration at 21 min in data set [3] (brain, read-out: Drug levels in the brain) stood at 749 nM; in data set [3] (setting [6]), 268 nM. The compound further came in with a concentration for half-maximal inhibition (IC50) against hERG channels of 28 µM.
